# Measured values reported in article PMC11960969, “Mdga2 deficiency leads to an aberrant activation of BDNF/TrkB signaling that underlies autism-relevant synaptic and behavioral changes in mice” (PLOS Biology, 2025).
# Where “and” joins values, the source holds several entries; their conditions need not be identical. Identical values can stand only once. No end group written: not given here.
# Tests used:
# mice [1] = assay: Three-chamber test (sociability and social novelty); assay type: in vivo, mouse; parameters: key to Sociability, Figure S4G: sociability index = (T_S1 - T_E)/(T_S1 + T_E), sniffing time; key to Social novelty, Figure S4G: social novelty index = (T_S2 - T_S1)/(T_S2 + T_S1), sniffing time; details: for Sociability, Figure S4G / Social novelty, Figure S4G: individual animals
# Experimental: (§1) Six- to eight-week-old male mice were subjected to various behavioral tests. Mice were allowed to acclimatize in the testing room for 1 h prior to each test. Data were recorded and analyzed using Smart 3.0 video tracking system (Panlab, Harvard Apparatus).
# This test was performed as described previously with minor modifications. The apparatus (60 W × 40 D × 22 H cm) has two transparent partitions separating the left, the middle, and the right chambers (20 × 40 cm each), and each partition has a small opening (5 × 5 cm) for access to each chamber. A fixed wire cylinder (8.5 cm diameter) was placed in each of the left and the right chambers. This test consisted of three phases: habituation, sociability test, and social novelty test. During habituation, both left and right cylinders were empty, and tested mice were placed in the center and allowed to explore freely for 10 min. During the sociability test, a gender-matched strange mouse (S1) was enclosed in one empty cylinder, and mice were allowed to freely explore for 10 min. Their time spent sniffing S1 or the other empty cylinder (E) was measured and the sociability preference index (T(S1 − -E)/T(S1 + E): time spent sniffing S1 minus time spent sniffing E over time spent sniffing both S1 and E) was calculated for comparison. During the social novelty test, another gender-matched unfamiliar mouse (S2) was placed into the empty cylinder and mice were allowed to freely explore for another 10 min. Their time spent sniffing S1 or S2 was measured and the social novelty preference index (T(S2 − S1)/T(S2 + S1): time spent sniffing S2 minus time spent sniffing S1 over time spent sniffing both S2 and S1) was calculated for comparison.
# mice [2] = assay: Open field test; assay type: in vivo, mouse; parameters: OFT (open field test), Figure S4C: unit not given here; details: individual animals;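 also: values are total travel distance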
# Experimental: as §1
# Mice were gently placed in the center of an open field apparatus (40 × 40 × 40 cm), and allowed for a 10-min period of free movement. Total distance traveled and time spent in center were analyzed.
# mice [3] = assay: Novel location recognition (NLR) test; assay type: in vivo, mouse; parameters: key to NLR (novel location recognition), Figure S4D: discrimination index = (T novel − T familiar)/(T novel + T familiar); details: for NLR (novel location recognition), Figure S4D: individual animals
# Experimental: as §1
# This test consists of habituation, training, and testing phases. Mice were first put into the open field apparatus described above for 10 min habituation. During the training phase, mice were allowed to freely explore two identical objects placed near two opposite corners of the open field arena for 8 min. Twenty-four hour later, one of the objects was moved to be close to a third corner (N: Novel location) while the other one was kept in the same spatial position (F: Familiar location). Mice were then tested for their exploration behavior with these objects for 8 min. The discrimination index (T(N − F)/T(N + F): time spent exploring the novel location minus time spent in familiar location over time spent to both novel and familiar location) was calculated to assess the recognition memory of mice.
# mice [4] = assay: Self-grooming test; assay type: in vivo, mouse; parameters: Repetitive behaviors / Repetitive behaviors, Figure S4E: unit not given here; details: for Repetitive behaviors: Figure 5D; for Repetitive behaviors / Repetitive behaviors, Figure S4E: Test2, individual animals
# Experimental: as §1
# Tested mice were placed individually in a clean cage with fresh bedding. After 5 min of habituation, the spontaneous behaviors of mice were recorded for 30 min and their self-grooming behavior was analyzed.
# hippocampal proteins = assay: DIA quantification proteomics, hippocampus of Mdga2+/- vs WT mice; parameters: species or system mouse; details: S3 Table, downregulated DEPs; for log2FC: Mdga2+/- vs WT mouse hippocampus (HET-HIP-VS-WT-HIP), SE, pvalue and adj_pvalue in own columns c3-c5; for Class: regulation class of the protein, HET-HIP-VS-WT-HIP
# Experimental: The hippocampus of 1.5–2-month-old Mdga2^ +/− male mice and their WT littermate controls was collected and sent to the BGI company for DIA quantification proteomics and data analysis. Briefly, samples were lysed and sonicated. After centrifugation, the supernatant was taken for quantification. Equal amounts of proteins (100 μg) per sample were subjected to trypsin enzymatic hydrolysis. After dryness, 10 μg enzymatic peptides per sample were separated by high-pH fractionation into a total of 10 fractions using high-performance liquid chromatography (HPLC) and freeze-dried. Data-dependent acquisition (DDA) fractions and DIA samples were analyzed by nano-LC–MS/MS. DDA data was identified by Andromeda search engine within MaxQuant. Identified results were used by Spectronaut^TM for spectral library construction. For DIA data, Spectronaut^TM used the constructed spectral library information to complete deconvolution and extraction, and used the mProphet algorithm to complete analytical quality control for obtaining reliable quantitative results. The mass spectrometry proteomics data have been deposited to the ProteomeXchange Consortium via the PRIDE [62] partner repository with the dataset identifier PXD050810. DEPs between comparison groups were identified based on the quantitative results, using the fold change >1.1 and p-value <0.05 as the criteria. After retrieval from the UniProtKB database, identified DEPs were processed for GO analysis by using DAVID (https://david.ncifcrf.gov/home.jsp) and Metascape database (https://metascape.org/gp/index.html).
# mice [5] = assay: Social affiliation test; assay type: in vivo, mouse; details: Mdga2+/- mice, 1 mg/kg i.p., 60 min, n = 10
# Experimental: as §1
# The test procedure was similar to that described previously. Briefly, a cylinder (8.5 cm in diameter) with a gender-matched reference mouse confined was placed at a specific location in an open field (40 cm in diameter). Tested mice were allowed to move freely in the open field for 7 min and their sniffing time with the reference mice was analyzed.
# human TrkB protein = assay: GST pull-down of purified human TrkB with MDGA2 fragments; assay type: binding; details: in vitro, GST-tagged fragments
# Experimental: Full-length human TrkB or MDGA2 cDNA was cloned into the pcDNA6-His vector. TrkB and MDGA2 proteins were expressed in HEK293T cells and then purified using a His-tag Protein Purification Kit (Beyotime, Cat# P2229S).
# GST pull-down: GST-fused MDGA2 fragments (L1: MDGA2 aa 746−786; L2: MDGA2 aa 787−833) were expressed in bacteria and purified using Glutathione Sepharose 4B (GE Healthcare, Cat# 17-0756-01). Purified human TrkB protein was incubated with GST-fused MDGA2-L1, MDGA2-L2, or GST proteins and then pulled down with Glutathione Sepharose 4B.
# [6] = Mdga2+/- mice, 1 mg/kg i.p., 60 min, n = 10
molecule,measurement,setting,value
O=C(Nc1ccccc1C(=O)NC1CCCCNC1=O)c1cc2ccccc2s1 (stereo not shown) [ANA12],"Sociability, Figure S4G","mice [1]; Het+ANA12, Test1",0.42 and 0.0153 and 0.50 and 0.46 and 0.24 and 0.59 and 0.23 and -0.06 and 0.14 and 0.34 and 0.26 and 0.0119 and 0.40
same,"Social novelty, Figure S4G","mice [1]; Het+ANA12, Test1",0.24 and 0.45 and 0.21 and -0.09 and -0.20 and 0.40 and 0.11 and -0.13 and 0.0948 and 0.000711 and 0.03 and 0.09 and 0.14 and 0.35
same,"Sociability, Figure S4G","mice [1]; Het+ANA12, Test2",0.33 and -0.13 and 0.40 and 0.15 and 0.02 and -0.01 and 0.31 and 0.35 and 0.08 and 0.17 and 0.12 and 0.27 and -0.04 and -0.19 and 0.54
same,"Social novelty, Figure S4G","mice [1]; Het+ANA12, Test2",0.15 and -0.17 and 0.23 and 0.32 and 0.18 and 0.16 and 0.44 and -0.13 and 0.0424 and -0.07 and 0.41 and -0.0144 and 0.06 and 0.0317 and 0.11
same,"Sociability, Figure S4G","mice [1]; WT+ANA12, Test1",0.72 and 0.46 and 0.41 and 0.66 and 0.61 and 0.33 and 0.44 and 0.36 and 0.55 and -0.10 and 0.22 and -0.13 and 0.11
same,"Social novelty, Figure S4G","mice [1]; WT+ANA12, Test1",0.05 and 0.43 and 0.53 and -0.13 and 0.39 and 0.40 and 0.32 and 0.62 and 0.44 and 0.33 and -0.01 and 0.18 and 0.61 and -0.10
same,"Sociability, Figure S4G","mice [1]; WT+ANA12, Test2",0.39 and 0.66 and 0.10 and -0.24 and 0.51 and 0.65 and 0.38 and 0.48 and 0.50 and 0.31 and 0.54 and 0.29 and 0.71 and 0.09 and 0.47
same,"Social novelty, Figure S4G","mice [1]; WT+ANA12, Test2",-0.06 and 0.16 and 0.50 and 0.26 and 0.08 and 0.12 and 0.42 and 0.30 and 0.55 and 0.58 and 0.27 and 0.11 and 0.33
same,"OFT (open field test), Figure S4C","mice [2]; Het+ANA12, Test1",39.1 and 38.5 and 30.9 and 34.7 and 41.8 and 45.2 and 48.5 and 34.6 and 26.5
same,"OFT (open field test), Figure S4C","mice [2]; Het+ANA12, Test2",19.1 and 38.5 and 35 and 43.1 and 30.9 and 22 and 39 and 30.4 and 45.6 and 31.5 and 29.6 and 25.1 and 49.6 and 27.8 and 28.2
same,"OFT (open field test), Figure S4C","mice [2]; WT+ANA12, Test1",46.5 and 20.6 and 31.2 and 41.8 and 24 and 27.1 and 44.6 and 35 and 26.6 and 21.8 and 34.8 and 37 and 41.1 and 19.1 and 26.9
same,"OFT (open field test), Figure S4C","mice [2]; WT+ANA12, Test2",43.3 and 20.5 and 26 and 46 and 26.1 and 37.1 and 47.7 and 21.2 and 24.6 and 27.2 and 22 and 34.1 and 17 and 29.8 and 32.4
same,"NLR (novel location recognition), Figure S4D","mice [3]; Het+ANA12, Test1",-0.13 and 0.49 and 0.11 and 0.03 and 0.36 and -0.0741 and 0.20 and 0.55 and 0.14 and 0.51 and 0.0439 and 0.0756 and 0.45 and 0.32 and -0.03
same,"NLR (novel location recognition), Figure S4D","mice [3]; Het+ANA12, Test2",0.15 and 0.00112 and 0.11 and 0.43 and 0.18 and -0.10 and 0.51 and 0.26 and -0.18 and 0.30 and 0.00129 and 0.14 and -0.04
same,"NLR (novel location recognition), Figure S4D","mice [3]; WT+ANA12, Test1",0.36 and 0.47 and 0.12 and 0.06 and 0.23 and 0.50 and 0.35 and 0.32 and -0.035 and 0.43 and 0.37 and -0.09 and 0.25 and 0.51 and -0.07
same,"NLR (novel location recognition), Figure S4D","mice [3]; WT+ANA12, Test2",-0.05 and 0.41 and 0.35 and 0.09 and 0.46 and -0.12 and 0.53 and 0.45 and 0.17 and 0.20 and -0.17 and 0.62 and 0.54
same,Repetitive behaviors,mice [4]; Het+ANA12,19 and 17 and 36 and 33 and 26 and 14 and 10 and 20 and 12 and 38 and 29 and 30 and 22 and 16
same,Repetitive behaviors,mice [4]; WT+ANA12,32 and 20 and 14 and 10 and 7 and 25 and 9 and 18 and 8 and 11 and 13
same,"Repetitive behaviors, Figure S4E",mice [4]; Het+ANA12,15 and 19 and 11 and 20 and 12 and 38 and 30 and 29 and 18 and 13 and 26 and 32 and 22 and 35
same,"Repetitive behaviors, Figure S4E",mice [4]; WT+ANA12,12 and 22 and 6 and 30 and 5 and 14 and 8 and 18 and 10 and 16 and 9 and 20 and 17 and 11
sp¦P97433¦ARG28_MOUSE,log2FC,hippocampal proteins,-1.853
same,Class,hippocampal proteins,Down
sp¦Q3UQ44¦IQGA2_MOUSE,log2FC,hippocampal proteins,-1.377
same,Class,hippocampal proteins,Down
"CCN(CC)Cc1cccc(/C=C/c2nc3ccc(F)cc3c(=O)n2-c2ccccc2Cl)n1 [CP-465022, reference compound]",sociability,mice [1]; [6],rapidly promoted social affiliation and sociability
same,social novelty,mice [1]; [6],without affecting social novelty
same,recognition memory,mice [3]; [6],"without affecting social novelty, recognition memory"
same,repetitive self-grooming behavior,mice [4]; [6],"without affecting social novelty, recognition memory, and repetitive self-grooming behavior"
same,social affiliation,mice [5],rapidly promoted social affiliation
sp¦Q80YX1¦TENA_MOUSE,log2FC,hippocampal proteins,-1.6471
same,Class,hippocampal proteins,Down
L1: GST-fused MDGA2 fragment aa 746−786 (FHCGFEDGNICLFTQDDTDNFDWTKQSTATRNTKYTPNTGP; cysteine pairing not given here; also: GST-fused),interaction with TrkB (GST pull-down),human TrkB protein,not GST-tagged L1 interacted with TrkB
L2: GST-fused MDGA2 fragment aa 787−833 (NADRSGSKEGFYMYIETSRPRLEGEKARLLSPVFSIAPKNPYGPTNT; also: GST-fused),interaction with TrkB (GST pull-down),human TrkB protein,interacted with TrkB
sp¦P27038¦AVR2A_MOUSE,log2FC,hippocampal proteins,-1.635
same,Class,hippocampal proteins,Down
sp¦Q0VGY8¦TANC1_MOUSE,log2FC,hippocampal proteins,-2.363
same,Class,hippocampal proteins,Down
sp¦A2A791¦ZMYM4_MOUSE,log2FC,hippocampal proteins,-2.935
same,Class,hippocampal proteins,Down
sp¦Q91WG7¦DGKG_MOUSE,log2FC,hippocampal proteins,-3.157
same,Class,hippocampal proteins,Down
sp¦A2AF47¦DOC11_MOUSE,log2FC,hippocampal proteins,-1.478
same,Class,hippocampal proteins,Down
